Results reported in US20240118281A1, “ANTICANCER COMPOUNDS AND USES THEREOF” (University of Florida Research Foundation, Incorporated, priority 2021, published 2024).

Tests used:
[1] = test system: HER3, DR5, CHOP and XBP1s; test: Reducing immunoblot of DDA responses; assay type: cell-based; details: MDA-MB-468 cells
Excerpt: The BT20, BT474, BT549, MCF7, MDA-MB-231, MDA-MB-436, MDA-MB-468, HCC1143, HCC1500, HCC1569, HCC1937, HCC1954, Hs578t, and T47D cells lines were purchased from American Type Culture Collection (ATCC) (Manassas, VA). The HCI-001 cell line was derived from an ER-/PR-/HER2- patient-derived xenograft originally isolated from a patient as described previously (DeRose Y S, et al. Nat Med 2011; 17: 1514-1520). The HCI-001/LVM2 model was derived from the HCI-001 cell line by performing two rounds of selection for liver metastasis, as described previously (Wang M, et al. Cell Death Discovery 2019; 5: 153). Cell lines were grown in Dulbecco's Modified Eagle's Medium (GE Healthcare Life Sciences, Logan, UT) containing 10% fetal bovine serum (10% FBS—DMEM) in a humidified incubator with 5% CO2 at 37° C. Cell lysates were prepared as described previously (Law B K, et al. Mol Cell Biol. 2002; 22: 8184-8198). […]

[2] = target: PDIA1 (Homo sapiens, UniProt P07237); test: PDIA1 disulfide bonding with client proteins, non-reducing immunoblot; assay type: cell-based; design: endogenous in cells; host or cells: MDA-MB-468; details: MDA-MB-468 cells, 5 μM, 24 h, FIG. 3E
Procedure: (§1) To assess protein disulfide bond-mediated oligomerization, cells were treated with DDAs for 24 h in 10% FBS-DMEM. Cells were subsequently scraped directly into the media and pelleted by centrifugation. Cells were extracted directly into boiling 2×-SDS-Sample Buffer containing 100 mM NEM and boiled for 10 min. Samples were sonicated, followed by centrifugation for 20 min at room temperature. Samples were subsequently analyzed by SDS-PAGE and immunoblot.

[3] = target: T1, ERp44 (Homo sapiens, UniProt Q9BS26); test: ERp44 disulfide bonding with client proteins, non-reducing immunoblot; assay type: cell-based; design: endogenous in cells; host or cells: MDA-MB-468; details: MDA-MB-468 cells
T1 sequence (Q9BS26 30-406): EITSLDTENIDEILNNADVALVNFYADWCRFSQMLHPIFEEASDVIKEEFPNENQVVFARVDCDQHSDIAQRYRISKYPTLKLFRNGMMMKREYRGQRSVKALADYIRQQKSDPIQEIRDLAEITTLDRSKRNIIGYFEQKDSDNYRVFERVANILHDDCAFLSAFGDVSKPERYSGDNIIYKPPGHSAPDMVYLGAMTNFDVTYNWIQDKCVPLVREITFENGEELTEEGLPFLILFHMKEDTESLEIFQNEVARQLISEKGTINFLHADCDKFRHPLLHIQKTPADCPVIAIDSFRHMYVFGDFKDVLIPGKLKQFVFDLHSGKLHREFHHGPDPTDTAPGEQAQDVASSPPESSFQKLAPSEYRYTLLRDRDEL
Procedure: as §1

[4] = test system: ERAP1; test: ERAP1 retention/secretion in MDA-MB-468 cells, immunoblot; assay type: cell-based; details: MDA-MB-468 cells
Excerpt: The BT20, BT474, BT549, MCF7, MDA-MB-231, MDA-MB-436, MDA-MB-468, HCC1143, HCC1500, HCC1569, HCC1937, HCC1954, Hs578t, and T47D cells lines were purchased from American Type Culture Collection (ATCC) (Manassas, VA). The HCI-001 cell line was derived from an ER-/PR-/HER2- patient-derived xenograft originally isolated from a patient as described previously (DeRose Y S, et al. Nat Med 2011; 17: 1514-1520). The HCI-001/LVM2 model was derived from the HCI-001 cell line by performing two rounds of selection for liver metastasis, as described previously (Wang M, et al. Cell Death Discovery 2019; 5: 153). Cell lines were grown in Dulbecco's Modified Eagle's Medium (GE Healthcare Life Sciences, Logan, UT) containing 10% fetal bovine serum (10% FBS—DMEM) in a humidified incubator with 5% CO2 at 37° C. Cell lysates were prepared as described previously (Law B K, et al. Mol Cell Biol. 2002; 22: 8184-8198). Immunoblot analysis was performed utilizing the following antibodies purchased from Cell Signaling Technology (Beverly, MA) [Akt, #4691; P-Akt[T308], #13038; ATF4, #11815; CHOP, #2895; Cleaved Caspase 8, #9496; DR4, #42533; DR5, #8074; EGFR, #4267; GRP78, #3177; HER3, #4754; PARP, #9532; PDIA1, #3501; XBP1s, #12782], from Santa Cruz Biotechnology (Santa Cruz, CA) [Actin, sc-47778; AGR2/3, sc-376653; AGR3, sc-390940; ERO1-a, sc-100805; and ERp44, sc-393687], or from Rockland Immunochemicals, Inc. (Limerick, PA), Streptavidin-Alkaline Phosphatase conjugated (SA-AP), S000-05.
as §1

[5] = test system: MDA-MB-468 cells; test: Cell viability (MTT) assay; assay type: cell-based; details: FIG. 1D
Procedure: MTT (3-(4,5-dimethylthiazol-2-yl)-2,5-diphenyltetrazolium bromide) (Biomatik, Wilmington, DE) assays were performed by plating 7,500 cells/well in 10% FBS/DMEM in a 96-well plate, followed by incubation at 37° C. for 24 h. Cells were then treated with vehicle or increasing concentrations of tcyDTDO, dMtcyDTDO, or dFtcyDTDO and incubated at 37° C. for 72 h. Cell media was subsequently removed from each well and MTT assays were initiated by incubating cells with 0.5 mg/ml MTT in PBS for 3 h, followed by removal of the MTT solution and addition of 100 µL of DMSO to each well for 30 min. Absorbance of the MTT formazan product was subsequently measured at 570 and 690 (reference) nm in a plate reader.

[6] = test system: MDA-MB-468 cells; test: Thymidine incorporation (DNA synthesis) assay; assay type: cell-based; details: 24 h, FIG. 9A
Procedure: Thymidine incorporation assays were performed as described previously (Corsino P, et al. J Biol Chem 2009; 284: 29945-29955).

[7] = target: T1, ERp44; test: In vitro binding assay with recombinant purified ERp44; details: pre-incubation with a molar excess, FIG. 3D
Procedure: Purified His6-AGR2 or His6-AGR2 C81S, as prepared above, or His6-AGR2 (PRO-580) or His6-AGR3 (PRO-242) obtained from ProSpec (New Brunswick NJ) were incubated with or without varying concentrations of the unlabeled DDA competitors, tcyDTDO or dMtcyDTDO, and 30 μM Biotin-GlyPyrDTDO or Biotin-PyrDTDO in buffer (20 mM HEPES (pH 7.4), 1 mM EDTA, 1 mM EGTA, 5% Glycerol, 1 nM Microcystin, 1 mM Na3VO4, and 40 mM Na2H2P2O7) containing 1% Triton-X 100 for 30 min at 37° C. […] Therefore, the two probes were used interchangeably. Reactions were stopped by boiling the samples in 2×-SDS-Sample Buffer containing 100 mM NEM for 10 min. Biotin-DDA labeling of protein was verified by blotting with Streptavidin-Alkaline Phosphatase (Rockland Immunochemicals, Inc., Limerick, PA). ERp44 (PRO-547) and PDIA1 (ENZ-262) were obtained from ProSpec and used in experiments examining the binding of these proteins to Biotin-PyrDTDO.

Chain of PDIA1 (P07237 18-508): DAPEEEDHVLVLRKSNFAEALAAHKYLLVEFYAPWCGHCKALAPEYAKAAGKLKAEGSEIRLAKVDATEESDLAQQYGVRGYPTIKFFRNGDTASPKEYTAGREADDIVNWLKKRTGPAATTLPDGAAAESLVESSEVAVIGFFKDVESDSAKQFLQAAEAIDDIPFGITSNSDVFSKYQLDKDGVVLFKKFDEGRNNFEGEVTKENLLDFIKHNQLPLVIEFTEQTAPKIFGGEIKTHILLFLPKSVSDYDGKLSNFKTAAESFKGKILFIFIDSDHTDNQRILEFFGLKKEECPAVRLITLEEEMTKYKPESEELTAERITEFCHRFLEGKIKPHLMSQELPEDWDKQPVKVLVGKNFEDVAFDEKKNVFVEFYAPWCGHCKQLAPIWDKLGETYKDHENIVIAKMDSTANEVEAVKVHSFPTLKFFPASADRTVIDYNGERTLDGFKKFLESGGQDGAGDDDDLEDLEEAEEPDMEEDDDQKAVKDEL

CO[C@H]1C[C@@H]2CS(=O)(=O)SC[C@H]2C[C@@H]1OC [dMtcyDTDO, dimethoxy-tcyDTDO]
Potency in induction of HER3 downregulation, DR5 upregulation and ERS (CHOP, XBP1s) ([1]; 24 h, reducing conditions, FIG. 9B): more potent than tcyDTDO
Onset of these responses (time-course) ([1]; FIG. 9C): as early as four hours after treatment
Disulfide bonding of PDIA1 with client proteins [2]: reduces disulfide bonding of ERp44 and PDIA1 with multiple proteins
Monomeric levels of PDIA1 [2]: minimal effect on monomeric levels
Disulfide bonding of ERp44 with client proteins ([3]; 5 μM, 24 h, FIG. 3E): reduces disulfide bonding of ERp44 and PDIA1 with multiple proteins
Monomeric levels of ERp44 ([3]; 5 μM, 24 h, FIG. 3E): minimal effect on monomeric levels
ERp44 binding to client proteins, quantitation across four experiments ([3]; FIG. 4D): decreased ERAP1 levels and ERp44 binding to client proteins in a statistically significant manner
ERAP1 levels in the culture medium ([4]; 5 μM, 24 h, FIG. 4F upper): dramatically increased
ERAP1 secretion, statistical analysis ([4]; 5 μM, 24 h, N=3, FIG. 4F lower): induced ERAP1 secretion in a statistically significant manner
Cellular ERAP1 levels, immunoblot ([4]; 24 h, FIG. 4B): decreased cellular ERAP1 levels
Cellular ERAP1 levels, quantitation across four experiments ([4]; FIG. 4C): decreased ERAP1 levels and ERp44 binding to client proteins in a statistically significant manner
Potency in cell viability assays relative to tcyDTDO [5]: approximately two-fold greater potency than tcyDTDO
Potency in DNA synthesis assay relative to tcyDTDO [6]: two-fold greater potency than tcyDTDO
Block of Biotin-PyrDTDO biotinylation of ERp44 [7]: biotinylation was blocked
